Experimental data reported in patent publication US7449463B2, “Morpholinyl containing benzimidazoles as inhibitors of respiratory syncytial virus replication” (Tibotec Pharmaceuticals Ltd., priority 2003, dated 2008).

Experiments:
[1] = system: Respiratory Syncytial Virus; test: microbe, parasite or virus in culture; type: cell-based; settings: for EC50: human respiratory syncytial virus, 168 h
From the text: In vitro Screening for Activity against Respiratory Syncytial Virus.
The percent protection against cytopathology caused by viruses (antiviral activity or EC50) achieved by tested compounds and their cytotoxicity (CC50) are both calculated from dose-response curves. The selectivity of the antiviral effect is represented by the selectivity index (SI), calculated by dividing the CC50 (cytotoxic dose for 50% of the cells) by the EC50 (antiviral activity for 50% of the cells).
Automated tetrazolium-based colorimetric assays were used for determination of EC50 and CC50 of test compounds. Flat-bottom, 96-well plastic microtiter trays were filled with 180 μl of Eagle's Basal Medium, supplemented with 5% FCS (0% for FLU) and 20 mM Hepes buffer. Subsequently, stock solutions (7.8× final test concentration) of compounds were added in 45 μl volumes to a series of triplicate wells so as to allow simultaneous evaluation of their effects on virus- and mock-infected cells. Five five-fold dilutions were made directly in the microtiter trays using a robot system. Untreated virus controls, and HeLa cell controls were included in each test. Approximately 100 TCID50 of Respiratory Syncytial Virus was added to two of the three rows in a volume of 50 μl. The same volume of medium was added to the third row to measure the cytotoxicity of the compounds at the same concentrations as those used to measure the antiviral activity. After two hours of incubation, a suspension (4×10^5 cells/ml) of HeLa cells was added to all wells in a volume of 50 μl. The cultures were incubated at 37° C. in a 5% CO2 atmosphere. Seven days after infection the cytotoxicity and the antiviral activity was examined spectrophotometrically. To each well of the microtiter tray, 25 μl of a solution of MTT (3-(4,5-dimethylthiazol-2-yl)-2,5-diphenyltetrazolium bromide) was added. The trays were further incubated at 37° C. for 2 hours, after which the medium was removed from each cup. Solubilization of the formazan crystals was achieved by adding 100 μl 2-propanol. Complete dissolution of the formazan crystals were obtained after the trays have been placed on a plate shaker for 10 min. Finally, the absorbances were read in an eight-channel computer-controlled photometer (Multiskan MCC, Flow Laboratories) at two wavelengths (540 and 690 nm). The absorbance measured at 690 nm was automatically subtracted from the absorbance at 540 nm, so as to eliminate the effects of non-specific absorption.

[2] = RSV-infected HeLa cells, MTT readout seven days after infection, −log of EC50 in molar units
[3] = pEC50 (−log of EC50 when expressed in molar units), protection against RSV cytopathology

Cc1ccc(S(=O)(=O)CCO)c(NCc2ccc3nc(NCCCN4CCOCC4)n(Cc4nc(C)ccc4O)c3c2)c1 [Compound 12]
EC50 [1, 2]: 0.251 nM | melting point: 170 °C

Cc1cc(C)cc(NCc2ccc3nc(NCCCN4CCOCC4)n(Cc4nc(C)ccc4O)c3c2)c1 [Compound 23, 2-[6-[(3,5-dimethyl-phenylamino)-methyl]-2-(3-morpholin-4-yl-propylamino)-benzoimidazol-1-ylmethyl]-6-methyl-pyridin-3-ol]
EC50 [1, 2]: 1 nM | melting point: 199 °C

Cc1ccc(O)c(Cn2c(NCCCN3CCOCC3)nc3ccc(CNc4c(C)cc(CCC#N)cc4C)cc32)n1 [Compound 49, 3-(4-{[3-(3-hydroxy-6-methyl-pyridin-2-ylmethyl)-2-(3-morpholin-4-yl-propylamino)-3H-benzoimidazol-5-ylmethyl]-amino}-3,5-dimethyl-phenyl)-propionitrile]
EC50 [1, 2]: 39.8 nM | melting point: 114 °C

Cc1ccc(I)c(NCc2ccc3nc(NCCCN4CCOCC4)n(Cc4nc(C)ccc4O)c3c2)c1 [Compound 50]
EC50 [1, 2]: 50.1 nM | melting point: 225 °C

Cc1cc(C)cc(N(CCO)Cc2ccc3nc(NCCCN4CCOCC4)n(Cc4nc(C)ccc4O)c3c2)c1 [Compound 58, 2-[6-{[(3,5-dimethyl-phenyl)-(2-hydroxy-ethyl)-amino]-methyl}-2-(3-morpholin-4-yl-propylamino)-benzimidazol-1-ylmethyl]-6-methyl-pyridin-3-ol]
EC50 [1, 2]: 0.398 nM | melting point: 180 °C

Cc1cc(C)cc(N(CCCC(N)=O)Cc2ccc3nc(NCCCN4CCOCC4)n(Cc4nc(C)ccc4O)c3c2)c1 [Compound 59, 2-[6-{[(3,5-dimethyl-phenyl)-(3-aminocarbonyl-propyl)-amino]-methyl}-2-(3-morpholin-4-yl-propylamino)-benzimidazol-1-ylmethyl]-6-methyl-pyridin-3-ol]
EC50 [1, 2]: 0.251 nM | melting point: 170 °C

Cc1cc(C)cc(N(CCCC(=O)O)Cc2ccc3nc(NCCCN4CCOCC4)n(Cc4nc(C)ccc4O)c3c2)c1 [Compound 62, 4-{(3,5-dimethyl-phenyl)-[3-(3-hydroxy-6-methyl-pyridin-2-ylmethyl)-2-(3-morpholin-4-yl-propylamino)-3H-benzoimidazol-5-ylmethyl]-amino}-butyric acid]
EC50 [1, 2]: 0.398 nM | melting point: 121 °C

Cc1cc(C)cc(N(CCN)Cc2ccc3nc(NCCCN4CCOCC4)n(Cc4nc(C)ccc4O)c3c2)c1 [Compound 66, 2-[6-{[(2-amino-ethyl)-(3,5-dimethyl-phenyl)-amino]-methyl}-2-(3-morpholin-4-yl-propylamino)-benzoimidazol-1-ylmethyl]-6-methyl-pyridin-3-ol]
EC50 [1, 2]: 1.26 nM | melting point: 196 °C

CCOC(=O)CCCN(Cc1ccc2nc(NCCCN3CCOCC3)n(Cc3nc(C)ccc3O)c2c1)c1cc(C)cc(C)c1 [Compound 71, 4-{(3,5-dimethyl-phenyl)-[3-(3-hydroxy-6-methyl-pyridin-2-ylmethyl)-2-(3-morpholin-4-yl-propylamino)-3H-benzoimidazol-5-ylmethyl]-amino}-butyric acid ethyl ester]
EC50 [1, 2]: 2.51 nM | melting point: 130 °C

Cc1ccc(O)c(Cn2c(NCCCN3CCOCC3)nc3ccc(Cc4c(C)cc(NCCO)cc4C)cc32)n1 [Compound 143, 2-[6-[4-(2-hydroxy-ethylamino)-2,6-dimethylbenzyl]-2-(3-morpholin-4-yl-propylamino)-benzoimidazol-1-ylmethyl]-6-methyl-pyridin-3-ol]
EC50 [1, 2]: 10 nM | melting point: 162 °C

CCn1ncc(Cc2ccc3nc(NCCCN4CCOCC4)n(Cc4nc(C)ccc4O)c3c2)c1NCCO [Compound 152]
EC50 [1, 2]: 7.94 nM | melting point: 168 °C

Cc1ccc2c(c1)N(Cc1ccc3nc(NCCCN4CCOCC4)n(Cc4nc(C)ccc4O)c3c1)CC2 [Compound 153]
EC50 [1, 2]: 50.1 nM | melting point: 212 °C

Cc1cc(C)c2nc(NCCCN3CCOCC3)n(Cc3nc(C)ccc3O)c2c1 [Compound 154, 2-[4,6-dimethyl-2-(3-morpholin-4-yl-propylamino)-benzoimidazol-1-yl-methyl]-6-methyl-pyridin-3-ol]
EC50 [1, 2]: 126 nM | melting point: 228 °C

Cc1cc(C)c2c(c1)nc(NCCCN1CCOCC1)n2Cc1nc(C)ccc1O [Compound 156, 2-[5,7-dimethyl-2-(3-morpholin-4-yl-propylamino)-benzoimidazol-1-ylmethyl]-6-methyl-pyridin-3-ol]
EC50 [1, 2]: 12600 nM | melting point: 234 °C

Cc1cccc(NC(=O)c2ccc3c(c2)nc(NCCCN2CCOCC2)n3Cc2nc(C)ccc2O)c1 [Compound 158]
EC50 [1, 2]: > 100000 nM | melting point: 170 °C

Cc1cccc(NC(=O)c2ccc3nc(NCCCN4CCOCC4)n(Cc4nc(C)ccc4O)c3c2)c1 [Compound 159]
EC50 [1, 2]: 20000 nM | melting point: 168 °C

C#Cc1cccc(NCc2ccc3nc(NCCCN4CCOCC4)n(Cc4nc(C)c(C)nc4C)c3c2)c1 [Compound 290]
Activity [1, 3]: 7

Cc1nc(C)c(Cn2c(NCCCN3CCOCC3)nc3ccc(CNc4ccc(C(N)=O)cc4)cc32)nc1C [Compound 291]
Activity [1, 3]: 7

Cc1cccc(NCc2ccc3c(c2)nc(NCCCN2CCOCC2)n3C2CCCc3nc(C)c(C)nc32)c1CCO (centres unmarked) [Compound 292]
Activity [1, 3]: 7

Cc1cccc(NCc2ccc3c(c2)nc(NCCCN2CCOCC2)n3C2CCCc3nc(C)c(C)nc32)c1CO (centres unmarked) [Compound 293]
Activity [1, 3]: 7

OCc1ccc2c(c1)nc(NCCCN1CCOCC1)n2Cc1cccc(Br)n1 [Compound 294]
Activity [1, 3]: 6.9

Cc1cccc(NCc2ccc3nc(NCCCN4CCOCC4)n(Cc4cccc5c4ncn5C)c3c2)c1 [Compound 295]
Activity [1, 3]: 6.9

Cn1cnc2c(Cn3c(NCCCN4CCOCC4)nc4ccc(CNc5ccc(C(N)=O)cc5)cc43)cccc21 [Compound 296]
Activity [1, 3]: 6.9

COc1ccc(C)nc1Cn1c(NCCCN2CCOCC2)nc2ccc(CNc3cccc(Br)c3)cc21 [Compound 297]
Activity [1, 3]: 6.9

COc1ccc(C)nc1Cn1c(NCCCN2CCOCC2)nc2ccc(CNc3cccc(C)c3CO)cc21 [Compound 298]
Activity [1, 3]: 6.9

Cc1nc(C)c(Cn2c(NCCCN3CCOCC3)nc3ccc(CNc4ccccc4CCN4CCOCC4)cc32)nc1C [Compound 299]
Activity [1, 3]: 6.9

Cc1nc(C)c(Cn2c(NCCCN3CCOCC3)nc3ccc(CNc4cccc(CCO)c4)cc32)nc1C [Compound 300]
Activity [1, 3]: 6.9

Cc1ccc(CCCO)c(NCc2ccc3c(c2)nc(NCCCN2CCOCC2)n3Cc2ncccc2O)c1 [Compound 301]
Activity [1, 3]: 6.8

Cc1cc(C)cc(N(CCCC(N)=O)Cc2ccc3nc(NCCCN4CCOCC4)n(Cc4ccc(F)cc4)c3c2)c1 [Compound 315]
Activity [1, 3]: 6.5

Cc1ccc(CCCO)c(NCc2ccc3c(c2)nc(NCCCN2CCOCC2)n3Cc2cccc3c2ncn3C)c1 [Compound 328]
Activity [1, 3]: 5.8

Cc1nc2c(nc1C)C(n1c(NCCCN3CCOCC3)nc3cc(CNc4cc(Cl)cc(Cl)c4)ccc31)CCC2 (centres unmarked) [Compound 331]
Activity [1, 3]: 5.7

Cc1cccc(Cn2c(NCCCN3CCOCC3)nc3ccc(CNc4ccccc4CCO)cc32)n1 [Compound 333]
Activity [1, 3]: 5.5

Cc1cc(C)cc(NCc2ccc3nc(NCCCN4CCOCC4)n(Cc4cccc(C)n4)c3c2)c1 [Compound 334]
Activity [1, 3]: 5.5

Cc1cccc(Cn2c(NCCCN3CCOCC3)nc3ccc(CNc4cccc(C)c4CCO)cc32)n1 [Compound 335]
Activity [1, 3]: 5.5

Cc1nc2c(nc1C)C(n1c(NCCCN3CCOCC3)nc3cc(CO)ccc31)CCC2 (centres unmarked) [Compound 336]
Activity [1, 3]: 5.4

Cc1cccc(NCc2ccc3nc(NCCCN4CCOCC4)n(Cc4cccc(C)n4)c3c2)c1 [Compound 338]
Activity [1, 3]: 5.4

Cc1nc2c(nc1C)C(n1c(NCCCN3CCOCC3)nc3cc(CNc4ccccc4C(N)=O)ccc31)CCC2 (centres unmarked) [Compound 340]
Activity [1, 3]: 5.3

Cc1cccc(Cn2c(NCCCN3CCOCC3)nc3ccc(CNc4ccccc4CCN4CCOCC4)cc32)n1 [Compound 345]
Activity [1, 3]: 5

COc1ccc(C)nc1Cn1c(NCCCN2CCOCC2)nc2ccc(CO)cc21 [Compound 346]
Activity [1, 3]: 4.9

Cc1cccc(Cn2c(NCCCN3CCOCC3)nc3ccc(CNc4cccc(C)c4CO)cc32)n1 [Compound 347]
Activity [1, 3]: 4.9

COc1ccc(C)nc1Cn1c(NCCCN2CCOCC2)nc2cc(CNc3cc(C)ccc3CCCO)ccc21 [Compound 348]
Activity [1, 3]: 4.8

Cc1ccc(CCCO)c(NCc2ccc3c(c2)nc(NCCCN2CCOCC2)n3Cc2cccc(C)n2)c1 [Compound 350]
Activity [1, 3]: 4.7

Cc1ccc(O)c(Cn2c(NCCCN3CCOCC3)nc3ccccc32)n1 [compound 155]
Activity [1, 2]: 6.8
